“Also recorded” adds a separate entry of the source.
Columns and labels:
[1] = system: TNFalpha; experiment: Inhibition of lipopolysaccharide-induced synthesis and liberation of TNFalpha in human mononuclear blood cells (sandwich enzyme immuno test); type: cell-based; conditions: for activity at 10 µM: 0.01 mmol/l; for activity at 100 µM: 0.1 mmol/l; for inhibitory effect on the synthesis and liberation of cytokines from human blood cells / effect on the TNFalpha level: in words; for effect on the TNFalpha level: experiments in Tab. 1
Protocol: The cell fraction which was visible as a white ring at the phase boundary was removed with the aid of a syringe, diluted 1:1 (v/v) with PM-16 buffer (from Serva Feinbiochemica GmbH & Co. KG, Heidelberg) and then centrifuged once again, as above, for 10 min. […] Using a cell counter (type IT, from Coulter Diagnostics, Krefeld), the cell suspension, which is composed of about 90% lymphocytes and 10% monocytes, was adjusted to about 5 million cells/ml. Cell viability was monitored before and after the inhibition experiments using the known lactate dehydrogenase method.
The synthesis and liberation of cellular TNFalpha was induced by adding a solution of 500 ng of lipopolysaccharide (Salmonella abortus equi, Sigma GmbH, Deisenhofen) in 0.01 ml of dimethyl sulfoxide/water (1:10, v/v) to 0.48 ml of the above-described cell fraction. At the same time, a solution of leflunomide or leflunomide metabolite in 0.01 ml of dimethylsulfoxide (for the final concentration in each case, see Tab. 1) was added to the cell fraction and the mixture was left at 37° C. for 20 h in a commercially available incubator. After cooling down to 0° C., the samples were centrifuged for 1 min. in a bench centrifuge. and in each case 0.025 ml aliquots of the supernatant were examined for their TNFalpha content using a "sandwich" enzyme immuno test kit (from Biermann GmbH, Bad Nauheim) in accordance with the manufacturer's instructions. The control values were determined without the addition of leflunomide or its metabolites and set at 100%. In particular, any possible influence of dimethylsulfoxide on the TNFalpha level was excluded by appropriate comparative measurements.

[2] = Metabolism of leflunomide in the test sample (mononuclear cell fraction), HPLC; type: in vitro ADME, human; conditions: human, mononuclear cells; mononuclear cell fraction, 37° C., HPLC; read-out: half life of metabolism of leflunomide to its metabolites (converted)
[3] = system: mononuclear cells; experiment: as above; type: in vitro ADME, human; conditions: in words; isolated mononuclear blood cells
[4] = Homo sapiens, LPS 500 ng, 37° C., 20 h, control = 100%, read-out: TNFalpha in the supernatant % +/- standard deviation

SMILES | activity at 10 µM [1, 4] | activity at 100 µM [1, 4] | inhibitory effect on the synthesis and liberation of cytokines from human blood cells [1] | effect on the TNFalpha level [1] | activity at 50 µM ([1]; Homo sapiens, 0.05 mmol/l, LPS 500 ng, 37° C., 20 h, control = 100%, read-out: TNFalpha in the supernatant % +/- standard deviation) | half-life [2] | metabolism of leflunomide under the experimental conditions [3]
C/C(O)=C(\C#N)C(=O)Nc1ccc(C(F)(F)F)cc1 [Leflunomide metabolite, N-(4-trifluoromethylphenyl)-2-cyano-3-hydroxycrotonamide] | 102 ± 12% | 105% | does not exhibit this advantageous effect | practically no effect on the TNFalpha level | – | – | –
Cc1oncc1C(=O)Nc1ccc(C(F)(F)F)cc1 [Leflunomide, N-(4-trifluoromethylphenyl)-5-methylisoxazole-4-carboxamide] | 100 ± 15% | 28 ± 5% | strong inhibitory effect | clearly lowered | 35% | ~10 h | did not, to any appreciable extent, metabolize; also recorded: only very slowly; also recorded: no appreciable metabolism
